Measured values taken from ChEMBL document CHEMBL1201862, “PubChem BioAssay data set” (2004).
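The compound was tested at five concentrations on cells cultured in 96-well plates, with a 48-hour exposure period. Here, GI50 denotes the concentration required for 50% inhibition of growth.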 The source made the active and inactive calls. Rule as the data show it: active = GI50 up to about 1.1 µM and inactive = higher.

Columns and labels:
Assay in all cases: DTP human tumour cell line panel, 48 h
SF-268 = tested on: SF-268
SK-MEL-2 = tested on: SK-MEL-2
NCI-H460 = tested on: NCI-H460
SF-295 = tested on: SF-295
SW-620 = tested on: SW-620
HT-29 = tested on: HT-29
OVCAR-3 = tested on: OVCAR-3
SK-MEL-28 = tested on: SK-MEL-28
KM12 = tested on: KM12
HL-60 = tested on: HL-60
SNB-19 = tested on: SNB-19
OVCAR-8 = tested on: OVCAR-8
IGROV-1 = tested on: IGROV-1
OVCAR-5 = tested on: OVCAR-5
A549 = tested on: A549
HOP-62 = tested on: HOP-62
RXF 393 = tested on: RXF 393
786-0 = tested on: 786-0
SN12C = tested on: SN12C

Structure (SMILES)	GI50 (SF-268)	GI50 (SK-MEL-2)	GI50 (NCI-H460)	GI50 (SF-295)	GI50 (SW-620)	GI50 (HT-29)	GI50 (OVCAR-3)	GI50 (SK-MEL-28)	GI50 (KM12)	GI50 (HL-60)	GI50 (SNB-19)	GI50 (OVCAR-8)	GI50 (IGROV-1)	GI50 (OVCAR-5)	GI50 (A549)	GI50 (HOP-62)	GI50 (RXF 393)	GI50 (786-0)	GI50 (SN12C)
CC1(C)CCSC(/C=C/c2ccccc2)=N1	30.8 µM (inactive)	14.6 µM (inactive)	12.1 µM (inactive)	19.9 µM (inactive)	19.1 µM (inactive)	18.4 µM (inactive)	15.2 µM (inactive)	19.3 µM (inactive)	12 µM (inactive)	33.1 µM (inactive)	20.1 µM (inactive)	15.5 µM (inactive)	20.6 µM (inactive)	20.2 µM (inactive)	25.2 µM (inactive)	16.4 µM (inactive)	21.6 µM (inactive)	12.9 µM (inactive)	–
CC1(c2ccc(F)cc2)C(C#N)C(=O)NC(=O)C1C#N (centres undefined)	> 100 µM (inactive)	> 100 µM (inactive)	> 100 µM (inactive)	> 100 µM (inactive)	> 100 µM (inactive)	> 100 µM (inactive)	> 100 µM (inactive)	> 100 µM (inactive)	> 100 µM (inactive)	> 100 µM (inactive)	> 100 µM (inactive)	> 100 µM (inactive)	> 100 µM (inactive)	> 100 µM (inactive)	> 100 µM (inactive)	75.2 µM (inactive)	60.1 µM (inactive)	> 100 µM (inactive)	> 100 µM (inactive)
N/C(=N/O)N/N=C\c1cc(Cl)cc(Cl)c1O	1.4 µM (inactive)	9.62 µM (inactive)	0.0705 µM (active)	0.791 µM (active)	3.97 µM (inactive)	5.2 µM (inactive)	5.41 µM (inactive)	14.1 µM (inactive)	6.65 µM (inactive)	0.0116 µM (active)	2.27 µM (inactive)	2.38 µM (inactive)	6.97 µM (inactive)	7.36 µM (inactive)	1.13 µM (inactive)	0.615 µM (active)	5.05 µM (inactive)	–	1.62 µM (inactive)
CCOC(=O)c1cc(Cl)ccc1OC(N)=O	> 100 µM (inactive)	> 100 µM (inactive)	> 100 µM (inactive)	> 100 µM (inactive)	> 100 µM (inactive)	> 100 µM (inactive)	> 100 µM (inactive)	> 100 µM (inactive)	> 100 µM (inactive)	> 100 µM (inactive)	> 100 µM (inactive)	> 100 µM (inactive)	> 100 µM (inactive)	> 100 µM (inactive)	> 100 µM (inactive)	> 100 µM (inactive)	> 100 µM (inactive)	–	> 100 µM (inactive)
CCC1N2CCCCC2[C@@H]2c3[nH]c4ccccc4c3CCN12 (some centres undefined)	> 100 µM (inactive)	> 100 µM (inactive)	> 100 µM (inactive)	> 100 µM (inactive)	> 100 µM (inactive)	> 100 µM (inactive)	> 100 µM (inactive)	> 100 µM (inactive)	–	> 100 µM (inactive)	> 100 µM (inactive)	> 100 µM (inactive)	> 100 µM (inactive)	> 100 µM (inactive)	> 100 µM (inactive)	> 100 µM (inactive)	> 100 µM (inactive)	> 100 µM (inactive)	> 100 µM (inactive)
Cc1ccc(NC(=O)c2cc3ccccc3c(/N=N/c3cc(S(=O)(=O)O)ccc3O)c2O)c(C)c1	18.6 µM (inactive)	16 µM (inactive)	–	10 µM (inactive)	10.9 µM (inactive)	12.4 µM (inactive)	3.26 µM (inactive)	18.7 µM (inactive)	16.1 µM (inactive)	–	15.8 µM (inactive)	17.5 µM (inactive)	16.3 µM (inactive)	16.2 µM (inactive)	22.3 µM (inactive)	13.1 µM (inactive)	17.5 µM (inactive)	16.2 µM (inactive)	41.7 µM (inactive)
S=P1(Oc2ccccc2)NNP2(=NP(N3CC3)(N3CC3)=NP(N3CC3)(N3CC3)=N2)NN1 (centres undefined)	78.3 µM (inactive)	> 100 µM (inactive)	37.6 µM (inactive)	> 10 µM (inactive)	> 100 µM (inactive)	> 100 µM (inactive)	> 100 µM (inactive)	> 100 µM (inactive)	> 100 µM (inactive)	30.4 µM (inactive)	> 100 µM (inactive)	> 100 µM (inactive)	> 100 µM (inactive)	> 100 µM (inactive)	> 100 µM (inactive)	49.4 µM (inactive)	–	> 100 µM (inactive)	84.1 µM (inactive)
c1ccc(C2N=C(c3ccccn3)C(c3ccccn3)=NC2c2ccccc2)cc1 (centres undefined)	> 100 µM (inactive)	> 100 µM (inactive)	> 100 µM (inactive)	> 100 µM (inactive)	> 100 µM (inactive)	> 100 µM (inactive)	> 100 µM (inactive)	> 100 µM (inactive)	> 100 µM (inactive)	> 100 µM (inactive)	19.1 µM (inactive)	> 100 µM (inactive)	> 100 µM (inactive)	> 100 µM (inactive)	> 100 µM (inactive)	20 µM (inactive)	> 100 µM (inactive)	> 100 µM (inactive)	–
